“And” between values parts separate entries of the source, which are not always exact repeats. Equal entries are not always repeated.
Legend:
[1] = Blood glucose level after rectal insulin administration (rabbit); assay type: in vivo; conditions: rectal suppository, Insulin 6 I. U., Compound (I) 5%; for Blood glucose level 0 hr.: Witepsol H-15, baseline, level at hour 0 considered 100%; for Blood glucose level 0.5 hr. / Blood glucose level 0.75 hr. / Blood glucose level 1.0 hr. / Blood glucose level 2.0 hr. / Blood glucose level […].: Witepsol H-15, relative to hour 0 = 100%
Text: To measure glucose levels, blood samples were taken from the auricular vein at timed intervals and assayed by the glucose oxidase method.
The urinary excretion values in Tables 1 to 5 are percentages based on the dose administered. The blood glucose levels in Table 6 are relative blood glucose levels when the blood glucose level at hour 0 is considered to be 100%.

[2] = Urinary excretions of β-lactam antibiotics after rectal suppository (rabbit); assay type: in vivo; conditions: Compound (I) 5%, Witepsol H-15
Method: The absorption into the circulation through the rectum of the rectal suppositories thus prepared was determined by measuring urinary excretion of the pharmacologically-active substance.
Thus, Sarcina lutea and Bacillus subtilis were used as assay organisms for penicillins and cephalosporins, respectively, and the assays were performed by the paper disk method (cultivation at 37° C. for from 15 to 20 hours).

[3] = Urinary excretions of AB-PC after administration of AB-PC rectal suppository (human); assay type: in vivo; conditions: AB-PC 125 mg (potency); for Urinary excretions of AB-PC (%) (0-6 hr.): Witepsol H-15, % of dose; for Urinary excretions (%) 0-2 (hr.) / Urinary excretions (%) 2-4 (hr.) / Urinary excretions (%) 4-6 (hr.) / Urinary excretions (%) Total (0-6 hr.): Compound (I) 10%, Witepsol H-15, Table 3
Method: The thus-obtained suppositories were administered to healthy adult male humans from the anus, and the urinary excretions of AB-PC were determined.

[4] = Urinary excretions of aminoglycoside antibiotics after rectal suppository (rabbit); conditions: Compound (I) 5%, Witepsol H-15
Method: The thus-obtained suppositories were administered to rabbits and the urinary excretions of the pharmacologically-active substance were determined.
(§1) Each rectal suppository was administered to a depth of 2 cm from the anus of a rabbit fasted 24 hours.
(§2) To measure the urinary excretions, urine samples were collected after administration at timed intervals, diluted and assayed by the biological assay procedure.
Thus, Bacillus subtilis was used as assay organism and the assays were performed by the cylinder plate method (cultivation at 37° C. for 15 to 20 hours).

[5] = Urinary excretions of peptide drugs after rectal suppository (rabbit); conditions: Colistin Sodium Methanesulfonate 150,000 IU, Compound (I) 5%, Witepsol H-15
Method: The thus-obtained suppositories were administered to rabbits from the anus, and the urinary excretions of the pharmacologically-active substance were determined.
as §1, §2
Thus, Escherichia coli was used as assay organism and the assays were performed by the cylinder plate method (cultivation at 37° C. for 15 to 20 hours).

[6] = Dibekacin sulfate 125 mg (potency)
[7] = Kanamycin sulfate 125 mg (potency)
[8] = Gentamicin sulfate 125 mg (potency)
[9] = Fortimicin sulfate 125 mg (potency)

Row | Structure (SMILES) | Urinary excretions (%) 0-2 hr. [4, 8] [%] | Urinary excretions (%) 2-4 hr. [4, 8] [%] | Urinary excretions (%) 4-6 hr. [4, 8] [%] | Urinary excretions (%) Total (0-6 hr.) [4, 8] [%] | Urinary excretions (%) 0-2 hr. [5] | Urinary excretions (%) 2-4 hr. [5] | Urinary excretions (%) 4-6 hr. [5] | Urinary excretions (%) Total (0-6 hr.) [5] | Urinary excretions (%) 0-2 (hr.) [3] [%] | Blood glucose level 0 hr. [1] [%] | Blood glucose level 0.5 hr. [1] [%] | Blood glucose level 0.75 hr. [1] [%] | Blood glucose level 1.0 hr. [1] [%] | Blood glucose level 2.0 hr. [1] [%] | Blood glucose level […]. [1] [%] | Urinary excretions of AB-PC (%) (0-6 hr.) ([3]; added compound 10%) | Urinary excretions (%) 0-2 hr. ([2]; FK-749 125 mg (potency)) [%] | Urinary excretions (%) 2-4 hr. ([2]; FK-749 125 mg (potency)) [%] | Urinary excretions (%) 4-6 hr. ([2]; FK-749 125 mg (potency)) [%] | Urinary excretions (%) Total (0-6 hr.) ([2]; FK-749 125 mg (potency)) [%] | further results
1 | CCCC(=O)NC(C(=O)O)c1ccccc1 (racemic) [Compound 29-Na, N--Butyryl-DL-phenylglycine] | – | – | – | – | – | – | – | – | – | 100 | 60.0 | 50.6 | 55.0 | 111.3 | 81.2 | – | – | – | – | – | Urinary excretions (%) 0-2 hr. ([2]; 6059-S 125 mg (potency)): 47.2%; Urinary excretions (%) 2-4 hr. ([2]; 6059-S 125 mg (potency)): 8.6%; Urinary excretions (%) 4-6 hr. ([2]; 6059-S 125 mg (potency)): 2.0%; Urinary excretions (%) Total (0-6 hr.) ([2]; 6059-S 125 mg (potency)): 57.8%
2 | O=C(O)CCCCCCCCCCCC(=O)O [Compound 5-Na, 1,11-Undecamethylene dicarboxylic acid] | – | – | – | – | – | – | – | – | – | 100 | 60.0 | 51.7 | 55.2 | 110.3 | 80.5 | – | – | – | – | – | Urinary excretions of AB-PC (%) (0-6 hr.) ([3]; Compound (I) 1%): 30.8%; Urinary excretions (%) 0-2 hr. ([2]; Cefotiam 125 mg (potency)): 40.0%; Urinary excretions (%) 2-4 hr. ([2]; Cefotiam 125 mg (potency)): 8.0%; Urinary excretions (%) 4-6 hr. ([2]; Cefotiam 125 mg (potency)): 2.1%; Urinary excretions (%) Total (0-6 hr.) ([2]; Cefotiam 125 mg (potency)): 60.1%; Urinary excretions (%) 0-2 hr. [4, 6]: 41.1%; Urinary excretions (%) 2-4 hr. [4, 6]: 8.8%; Urinary excretions (%) 4-6 hr. [4, 6]: 1.1%; Urinary excretions (%) Total (0-6 hr.) [4, 6]: 51.0%
3 | CCCCOc1ccc(C(=O)O)cc1 [Compound 3-Na, p-Butoxybenzoic acid] | – | – | – | – | – | – | – | – | – | 100 | 60.0 | – | 50.5 | 103.3 | 79.5 | 20.9 | 41.6 | 19.2 | 3.0 | 63.8 | Urinary excretions (%) 0-2 hr. ([2]; Cefmetazole 125 mg (potency)): 45.0%; Urinary excretions (%) 2-4 hr. ([2]; Cefmetazole 125 mg (potency)): 20.0%; Urinary excretions (%) 4-6 hr. ([2]; Cefmetazole 125 mg (potency)): 1.5%; Urinary excretions (%) Total (0-6 hr.) ([2]; Cefmetazole 125 mg (potency)): 66.5%; Urinary excretions (%) 0-2 hr. [4, 7]: 45.1%; Urinary excretions (%) 4-6 hr. [4, 7]: 2.6%; Urinary excretions (%) Total (0-6 hr.) [4, 7]: 59.8%
4 | O=C(O)CCCCCCCCCCC(=O)O [Compound 2-Na, 1,10-Decamethylenedicarboxylic acid] | 41.2 | 9.9 | 3.1 | 53.2 | 20.5% | 9.2% | 1.8% | 31.5% | – | 100 | 57.0 | 50.5 | – | 98.5 | 68.5 | 25.6 | – | – | – | – | Urinary excretions (%) 0-2 hr. ([2]; Cefazolin 125 mg (potency)): 41.5%; Urinary excretions (%) 2-4 hr. ([2]; Cefazolin 125 mg (potency)): 16.9%; Urinary excretions (%) 4-6 hr. ([2]; Cefazolin 125 mg (potency)): 3.5%; Urinary excretions (%) Total (0-6 hr.) ([2]; Cefazolin 125 mg (potency)): 61.9%
5 | CCCCCCCCCC(=O)N[C@H](C(=O)O)C(C)C [Compound 24-Na, N--Caprinoyl-L-valine] | – | – | – | – | – | – | – | – | 18.0 | – | – | – | – | – | – | – | 45.0 | 5.6 | 2.5 | 53.1 | Urinary excretions (%) 2-4 (hr.) [3]: 5.1%; Urinary excretions (%) 4-6 (hr.) [3]: 1.0%; Urinary excretions (%) Total (0-6 hr.) [3]: 23.1%; Urinary excretions (%) 0-2 hr. ([2]; Cefotaxime 125 mg (potency)): 31.5%; Urinary excretions (%) 2-4 hr. ([2]; Cefotaxime 125 mg (potency)): 10.0%; Urinary excretions (%) 4-6 hr. ([2]; Cefotaxime 125 mg (potency)): 0.8%; Urinary excretions (%) Total (0-6 hr.) ([2]; Cefotaxime 125 mg (potency)): 42.3%
6 | CCCCCCCC(=O)N[C@@H](Cc1ccccc1)C(=O)O [Compound 23-Na, N--Capryloyl-L-phenylalanine] | 45.0 | 6.0 | 1.5 | 52.5 | 21.2% and 18.5% | 10.0% and 8.0% | 1.2% and 0.8% | 32.4% and 27.3% | 24.0 | 100 | 59.0 | – | – | 103.0 | 69.5 | – | – | – | – | – | Urinary excretions (%) 2-4 (hr.) [3]: 3.0%; Urinary excretions (%) 4-6 (hr.) [3]: 1.2%; Urinary excretions (%) Total (0-6 hr.) [3]: 28.2%; Urinary excretions (%) 0-2 hr. [4, 9]: 46.0%; Urinary excretions (%) 2-4 hr. [4, 9]: 8.0%; Urinary excretions (%) 4-6 hr. [4, 9]: 2.0%; Urinary excretions (%) Total (0-6 hr.) [4, 9]: 56.0%

— patent US4442090A, “Absorption-promoting compounds, compositions thereof with pharmaceuticals and/or bases for rectal administration and method of use” (Kyoto Yakuhin Kogyo Kabushiki Kaisha, priority 1980, dated 1984)
